The assay addresses Sphingosine 1-phosphate receptor 4 (Homo sapiens) (UniProt O95977). Description: S1P4 receptor agonist potency, late-stage follow-up, cell-based, fluorescence, dose response, synthesized compounds set 2 (AID 504877). The note with it: S1P4 cell-based agonist assay, fluorescence read-out.

Several values for one entry are separate records, joined by “and”; a condition that tells them apart may be missing. Equal values may be shown once. Activity calls are given as the source filed them. How the calls were made is not given here.

On to `CN=C1S/C(=C/c2cc(C)n(Cc3ccccc3)c2C)C(=O)N1C`, for which the EC50 (commonly the midpoint of the concentration-response curve) was 203 nM (run 1), 454 nM (run 2) and 130 nM (run 3).

As to `CN=C1S/C(=C/c2cc(C)n(-c3cc(C)ccc3OC)c2C)C(=O)N1C`, the EC50 runs as follows: (run 1) > 50000 nM (inactive); (run 2) > 50000 nM (inactive); (run 3) > 50000 nM (inactive).

For `CN=C1NC(=O)/C(=C\c2cc(C)n(-c3ccccc3F)c2C)S1`, the EC50 was 5380 nM (run 1), 4530 nM (run 2) and 942 nM (run 3).

With `CC/N=C1/SC(=Cc2cc(C)n(Cc3ccccc3OC)c2C)C(=O)N1CC`, the half-maximal effective concentration (EC50) was 274 nM (run 1), 663 nM (run 2) and 285 nM (run 3).

As for `Cc1cc(/C=C2\SC(=Nc3ccccc3)NC2=O)c(C)n1-c1ccccc1F`, the EC50 runs as follows: (run 1) > 50000 nM (inactive); (run 2) > 50000 nM (inactive); (run 3) > 50000 nM (inactive).

As to `CCN=C1S/C(=C/c2cc(C)n(-c3ccc(F)cc3F)c2C)C(=O)N1CC`, the EC50 was 75.3 nM (run 1), 133 nM (run 2) and 104 nM (run 3).

For the compound `CCN=C1S/C(=C/c2cc(C)n(Cc3ccccc3)c2C)C(=O)N1CC`, the EC50 by setting is: (run 1) 598 nM; (run 2) 703 nM; (run 3) 154 nM.

`CN=C1S/C(=C/c2cc(C)n(-c3ccccc3C)c2C)C(=O)N1C`: the EC50 was > 50000 nM (inactive) (run 1) and > 50000 nM (inactive) (run 2). Also, the EC50 entry (run 3) was “inactive”.

`COCCN=C1S/C(=C\c2cc(C)n(-c3ccc(F)cc3F)c2C)C(=O)N1C`: the EC50 reads like this: (run 1) 37.7 nM and 51.4 nM; (run 2) 79.1 nM.

As to `CCN=C1S/C(=C/c2ccn(-c3ccc(F)cc3F)c2)C(=O)N1CC`, the EC50 entry (run 1) was “inactive”. Moreover, the EC50 runs as follows: (run 2) > 50000 nM (inactive); (run 3) 5390 nM.

Consider `CCN=C1S/C(=C/c2cc(C)n(-c3ncccc3F)c2C)C(=O)N1CC`, for which the EC50 (run 1) was 5310 nM and the EC50 (run 3) is 918 nM. Moreover, where the note is “run 2”, the EC50 entry is “inactive”.

Take `CCN=C1S/C(=C\c2ccn(-c3ccccc3F)c2)C(=O)N1CC`: the EC50 was > 50000 nM (inactive) (run 1) and > 50000 nM (inactive) (run 2). Further, under “run 3”, the EC50 entry is “inactive”.

With `CN=C1S/C(=C\c2ccn(-c3ccccc3F)c2)C(=O)N1C`, the EC50 (run 1) was > 50000 nM (inactive), the EC50 (run 2) is > 50000 nM (inactive) and the EC50 (run 3) was > 50000 nM (inactive).

Regarding `CN=C1S/C(=C\c2cc(C)n(-c3ccccc3Br)c2C)C(=O)N1C`, the EC50 reads like this: (run 1) > 50000 nM (inactive); (run 2) > 50000 nM (inactive); (run 3) > 50000 nM (inactive).

With `CN=C1S/C(=C\c2cc(C)n(-c3ccc(F)cc3F)c2C)C(=O)N1CCOC`, the EC50 (run 1) was 1580 nM and the EC50 (run 2) is 1.85 nM.

On to `Cc1cc(/C=C2\SC(=NC(C)C)N(C(C)C)C2=O)c(C)n1-c1ccccc1F`, for which the EC50 was > 50000 nM (inactive) (run 1), > 50000 nM (inactive) (run 2) and > 50000 nM (inactive) (run 3).

For the compound `CCN=C1S/C(=C\c2cc(C)n(Cc3ccccc3F)c2C)C(=O)N1CC`, the EC50 is, setting by setting: (run 1) > 50000 nM (inactive); (run 2) > 50000 nM (inactive); (run 3) > 50000 nM (inactive).

On to `CCN=C1S/C(=C\c2cc(C)n(-c3ccccc3F)c2C)C(=O)N1CC`, for which the EC50 runs as follows: (run 1) 116 nM; (run 2) 268 nM; (run 3) 368 nM.

On to `CCN=C1S/C(=C/c2cc(C)n(-c3ccccn3)c2C)C(=O)N1CC`, for which the EC50 (run 1) was 158 nM, the EC50 (run 2) was 212 nM and the EC50 (run 3) was 102 nM.

For the compound `COCCN=C1S/C(=C\c2cc(C)n(Cc3ccccc3)c2C)C(=O)N1CCOC`, the EC50 is > 50000 nM (inactive) (run 1) and > 50000 nM (inactive) (run 2). Besides, the EC50 result (run 3) was “inactive”.

Regarding `CN=C1S/C(=C/c2cc(C)n(-c3ccc(Cl)cc3F)c2C)C(=O)N1C`, the EC50 was 432 nM (run 1), 686 nM (run 2) and 202 nM (run 3).

With `CN=C1NC(=O)/C(=C\c2cc(C)n(-c3cccc(F)c3)c2C)S1`, the EC50 (run 1) is > 50000 nM (inactive), the EC50 (run 2) is > 50000 nM (inactive) and the EC50 (run 3) was > 50000 nM (inactive).

For `CCN=C1S/C(=C\c2cc(C)n(-c3ccccc3)c2C)C(=O)N1CC`, the EC50 is, setting by setting: (run 1) 635 nM; (run 2) 705 nM; (run 3) 465 nM.

With `Cc1cc(/C=C2\SC(=O)N(C)C2=O)c(C)n1-c1ccccc1F`, the EC50 (run 1) was > 50000 nM (inactive), the EC50 (run 2) is > 50000 nM (inactive) and the EC50 (run 3) is 8960 nM.

For `CN=C1S/C(=C\c2ccn(Cc3ccccc3)c2)C(=O)N1C`, the EC50 (run 1) was > 50000 nM (inactive), the EC50 (run 2) was > 50000 nM (inactive) and the EC50 (run 3) is > 50000 nM (inactive).

In the case of `CN=C1S/C(=C/c2cc(C)n(-c3ccc(F)cc3F)c2C)C(=O)N1C`, the EC50 reads like this: (run 1) 113 nM; (run 2) 199 nM; (run 3) 317 nM.

For `CCN=C1S/C(=C/c2cc(C)n(C(C)c3ccccc3)c2C)C(=O)N1CC` (stereo not drawn), the EC50 entry (run 1) was “inactive” and the EC50 entry (run 3) is “inactive”. Besides, the EC50 (run 2) was > 50000 nM (inactive).

On to `Cc1cc(/C=c2\sc3n(c2=O)CCCN=3)c(C)n1-c1ccccc1F`, for which the EC50 reads like this: (run 1) > 50000 nM (inactive); (run 2) > 50000 nM (inactive); (run 3) > 50000 nM (inactive).

For the compound `C/N=C1/SC(=Cc2cc(C)n(Cc3ccc(F)cc3F)c2C)C(=O)N1C`, the EC50 is, setting by setting: (run 1) 84.7 nM; (run 2) 195 nM; (run 3) 161 nM.

Turning to `CCN=C1S/C(=C/c2cc(C)n(-c3ccc(Cl)cc3F)c2C)C(=O)N1CC`, the EC50 reads like this: (run 1) 490 nM; (run 2) 733 nM; (run 3) 370 nM.
